Patent publication US20100173888A1 (Pfizer Inc, priority 2008, published 2010)
pIC50: −log10 of the molar value.

target: human recombinant H-PGDS (Homo sapiens, UniProt O60760); experiment: Slightly modified fluorescence intensity h-PGDS TBA enzyme assay (1:40,000 enzyme, 40 second reaction, 1/2 log dilutions, top concentration typically 10 μM); format: biochemical; conditions: slightly modified assay: 1:40,000 human recombinant H-PGDS
Procedure, shortened: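 Enzyme pre-incubated 10 min at room temperature with inhibitor in 100 mM Trizma pH 8.0, 100 μM MgCl2, 0.1 mg/ml rabbit IgG, 2.5 mM glutathione, 0.5% DMSO; reaction started with 5.0 μM PGH2 and stopped with FeCl2/citric acid. Remaining PGH2 quantified as MDA–TBA fluorescence (ex 530/em 560 nm); IC50 from 4-parameter fit, 11 concentrations in duplicate.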

Sequence of human recombinant H-PGDS (O60760 whole entry): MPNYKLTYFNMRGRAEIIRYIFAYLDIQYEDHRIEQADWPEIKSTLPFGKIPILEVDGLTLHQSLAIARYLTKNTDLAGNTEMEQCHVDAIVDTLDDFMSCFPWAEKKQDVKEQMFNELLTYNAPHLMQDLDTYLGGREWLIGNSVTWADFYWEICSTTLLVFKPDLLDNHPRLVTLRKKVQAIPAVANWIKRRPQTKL

pIC50 | Compound
7.27 | CN1CCN(C[C@H]2CC[C@@H](NC(=O)c3ccc(-c4cccc(F)c4)nc3)CC2)CC1 [Example 81, 6-(3-Fluorophenyl)-N-{cis-4-[(4-methylpiperazin-1-yl)methyl]cyclohexyl}nicotinamide]
8.56 | O=C(N[C@H]1CC[C@H](C(=O)N2CCC(O)CC2)CC1)c1ccc(-c2cccc(F)c2)nc1 [Example 85, 6-(3-Fluorophenyl)-N-{trans-4-[(4-hydroxypiperidin-1-yl)carbonyl]cyclohexyl}nicotinamide]
8.68 | O=C(N[C@H]1CC[C@H](C(=O)N2CCCC2)CC1)c1ccc(-c2cccc(F)c2)nc1 [Example 87, 6-(3-Fluorophenyl)-N-[trans-4-(pyrrolidin-1-ylcarbonyl)cyclohexyl]nicotinamide]
7.90 | CN1CCN(C(=O)[C@H]2CC[C@H](NC(=O)c3ccc(-c4cccc(F)c4)nc3)CC2)CC1 [Example 90, 6-(3-Fluorophenyl)-N-{trans-4-[(4-methylpiperazin-1-yl)carbonyl]cyclohexyl}nicotinamide]
8.40 | O=C(N[C@H]1CC[C@H](C(=O)N2CCOCC2)CC1)c1ccc(-c2cccc(F)c2)nc1 [Example 91, 6-(3-Fluorophenyl)-N-[trans-4-(morpholin-4-ylcarbonyl)cyclohexyl]nicotinamide]
7.63 | CCN1CCN(C(=O)[C@H]2CC[C@H](NC(=O)c3ccc(-c4cccc(F)c4)nc3)CC2)CC1 [Example 96, N-{trans-4-[(4-Ethylpiperazin-1-yl)carbonyl]cyclohexyl}-6-(3-fluorophenyl)nicotinamide]
7.67 | N[C@H]1CCN(C(=O)[C@H]2CC[C@H](NC(=O)c3ccc(-c4cccc(F)c4)nc3)CC2)C1 [Example 98, N-(trans-4-{[(3S)-3-Aminopyrrolidin-1-yl]carbonyl}cyclohexyl)-6-(3-fluorophenyl)nicotinamide]
7.95 | N[C@@H]1CCN(C(=O)[C@H]2CC[C@H](NC(=O)c3ccc(-c4cccc(F)c4)nc3)CC2)C1 [Example 99, N-(trans-4-{[(3R)-3-Aminopyrrolidin-1-yl]carbonyl}cyclohexyl)-6-(3-fluorophenyl)nicotinamide]
7.89 | NC1CN(C(=O)[C@H]2CC[C@H](NC(=O)c3ccc(-c4cccc(F)c4)nc3)CC2)C1 [Example 100, N-{trans-4-[(3-Aminoazetidin-1-yl)carbonyl]cyclohexyl}-6-(3-fluorophenyl)nicotinamide]
7.80 | C[C@H]1CN(C(=O)[C@H]2CC[C@H](NC(=O)c3ccc(-c4cccc(F)c4)nc3)CC2)CCN1 [Example 101, 6-(3-Fluorophenyl)-N-(trans-4-{[(3S)-3-methylpiperazin-1-yl]carbonyl}cyclohexyl)nicotinamide]
8.01 | C[C@@H]1CN(C(=O)[C@H]2CC[C@H](NC(=O)c3ccc(-c4cccc(F)c4)nc3)CC2)CCN1 [Example 102, 6-(3-Fluorophenyl)-N-(trans-4-{[(3R)-3-methylpiperazin-1-yl]carbonyl}cyclohexyl)nicotinamide]
7.51 | O=C(N[C@H]1CC[C@H](C(=O)N2CCN(C3CC3)CC2)CC1)c1ccc(-c2cccc(F)c2)nc1 [Example 107, N-{trans-4-[(4-Cyclopropylpiperazin-1-yl)carbonyl]cyclohexyl}-6-(3-fluorophenyl)nicotinamide]
7.78 | C[C@H]1CNCCN1C(=O)[C@H]1CC[C@H](NC(=O)c2ccc(-c3cccc(F)c3)nc2)CC1 [Example 109, 6-(3-Fluorophenyl)-N-(trans-4-{[(2S)-2-methylpiperazin-1-yl]carbonyl}cyclohexyl)nicotinamide]
7.64 | CN1CCN(C[C@H]2CC[C@H](NC(=O)c3ccc(-c4cccc(F)c4)nc3)CC2)CC1 [Example 111, 6-(3-Fluorophenyl)-N-{trans-4-[(4-methylpiperazin-1-yl)methyl]cyclohexyl}nicotinamide]
7.29 | CN1CCN(C(=O)C2(C)CCC(NC(=O)c3ccc(-c4cccc(F)c4)nc3)CC2)CC1 (stereo not drawn) [Example 118, 6-(3-Fluorophenyl)-N-{cis-4-methyl-4-[(4-methylpiperazin-1-yl)carbonyl]cyclohexyl}nicotinamide]

Further lines, the compound ahead of its results:

Compound | pIC50
Cc1nccn1C[C@H]1CC[C@@H](NC(=O)c2ccc(-c3cccc(F)c3)nc2)CC1 [Example 79, 6-(3-Fluorophenyl)-N-{cis-4-[(2-methyl-1H-imidazol-1-yl)methyl]cyclohexyl}nicotinamide] | 7.80
O=C(N[C@H]1CC[C@@H](CN2CCOCC2)CC1)c1ccc(-c2cccc(F)c2)nc1 [Example 80, 6-(3-Fluorophenyl)-N-[cis-4-(morpholin-4-ylmethyl)cyclohexyl]nicotinamide] | 7.78
Cn1nnnc1O[C@H]1CC[C@H](NC(=O)c2ccc(-c3cccc(F)c3)nc2)CC1 [Example 82, 6-(3-Fluorophenyl)-N-{trans-4-[(1-methyl-1H-tetrazol-5-yl)oxy]cyclohexyl}nicotinamide] | 7.90
CO[C@H]1CC[C@H](NC(=O)c2ccc(-c3cccc(F)c3)nc2)CC1 [Example 83, 6-(3-Fluorophenyl)-N-(trans-4-methoxycyclohexyl)nicotinamide] | 8.16
O=C(N[C@H]1CC[C@H](C(=O)O)CC1)c1ccc(-c2cccc(F)c2)nc1 [Example 84, trans-4-({[6-(3-fluorophenyl)pyridin-3yl]carbonyl}amino)cyclohexanecarboxylic acid] | 7.40
O=C(N[C@H]1CC[C@H](C(=O)NC2CCCC2)CC1)c1ccc(-c2cccc(F)c2)nc1 [Example 86, N-[trans-4-(Cyclopentylcarbamoyl)cyclohexyl]-6-(3-fluorophenyl)nicotinamide] | 7.59
CC(C)NC(=O)[C@H]1CC[C@H](NC(=O)c2ccc(-c3cccc(F)c3)nc2)CC1 [Example 88, 6-(3-Fluorophenyl)-N-[trans-4-(isopropylcarbamoyl)cyclohexyl]nicotinamide] | 7.83
O=C(N[C@H]1CC[C@H](OCCO)CC1)c1ccc(-c2cccc(F)c2)nc1 [Example 89, 6-(3-Fluorophenyl)-N-[trans-4-(2-hydroxyethoxy)cyclohexyl]nicotinamide] | 8.41
CN(C)C(=O)[C@H]1CC[C@H](NC(=O)c2ccc(-c3cccc(F)c3)nc2)CC1 [Example 92, N-[trans-4-(Dimethylcarbamoyl)cyclohexyl]-6-(3-fluorophenyl)nicotinamide] | 8.57
CNCCN(C)C(=O)[C@H]1CC[C@H](NC(=O)c2ccc(-c3cccc(F)c3)nc2)CC1 [Example 93, 6-(3-Fluorophenyl)-N-(trans-4-{methyl[2-(methylamino)ethyl]carbamoyl}cyclohexyl)nicotinamide] | 7.82
CN[C@H]1CC[C@H](NC(=O)c2ccc(-c3cccc(F)c3)nc2)CC1 [Example 94, 6-(3-Fluorophenyl)-N-[trans-4-(methylamino)cyclohexyl]-nicotinamide] | 7.28
CN(C)C(=O)C[C@H]1CC[C@H](NC(=O)c2ccc(-c3cccc(F)c3)nc2)CC1 [Example 95, N-{trans-4-[2-(Dimethylamino)-2-oxoethyl]cyclohexyl}-6-(3-fluorophenyl)nicotinamide] | 8.20
CC(C)(O)[C@H]1CC[C@H](NC(=O)c2ccc(-c3cccc(F)c3)nc2)CC1 [Example 97, 6-(3-Fluorophenyl)-N-[trans-4-(1-hydroxy-1-methylethyl)cyclohexyl]nicotinamide] | 8.54
O=C(N[C@H]1CC[C@H](CO)CC1)c1ccc(-c2cccc(F)c2)nc1 [Example 103, 6-(3-Fluorophenyl)-N-[trans-4-(hydroxymethyl)cyclohexyl]nicotinamide] | 8.84
Cc1nccn1[C@H]1CC[C@H](NC(=O)c2ccc(-c3cccc(F)c3)nc2)CC1 [Example 105, 6-(3-Fluorophenyl)-N-[trans-4-(2-methyl-1H-imidazol-1-yl)cyclohexyl]nicotinamide] | 7.83
CC(C)c1nccn1[C@H]1CC[C@H](NC(=O)c2ccc(-c3cccc(F)c3)nc2)CC1 [Example 106, 6-(3-Fluorophenyl)-N-[trans-4-(2-isopropyl-1H-imidazol-1-yl)cyclohexyl]nicotinamide] | 7.85
C[C@@H]1CNCCN1C(=O)[C@H]1CC[C@H](NC(=O)c2ccc(-c3cccc(F)c3)nc2)CC1 [Example 108, 6-(3-Fluorophenyl)-N-(trans-4-{[(2R)-2-methylpiperazin-1-yl]carbonyl}cyclohexyl)nicotinamide] | 7.66
O=C(N[C@H]1CC[C@H](CN2CCOCC2)CC1)c1ccc(-c2cccc(F)c2)nc1 [Example 110, 6-(3-Fluorophenyl)-N-[trans-4-(morpholin-4-ylmethyl)cyclohexyl]nicotinamide] | 8.23
CN(C)C[C@H]1CC[C@H](NC(=O)c2ccc(-c3cccc(F)c3)nc2)CC1 [Example 112, N-{trans-4-[(Dimethylamino)methyl]cyclohexyl}-6-(3-fluorophenyl)nicotinamide] | 7.80
Cc1nccn1C[C@H]1CC[C@H](NC(=O)c2ccc(-c3cccc(F)c3)nc2)CC1 [Example 113, 6-(3-Fluorophenyl)-N-{trans-4-[(2-methyl-1H-imidazol-1-yl)methyl]cyclohexyl}nicotinamide] | 8.01
C[C@]1(O)CC[C@H](NC(=O)c2ccc(-c3cccc(F)c3)nc2)CC1 [Example 115, 6-(3-Fluorophenyl)-N-(trans-4-hydroxy-4-methylcyclohexyl)nicotinamide] | 8.06
C[C@]1(C(=O)O)CC[C@@H](NC(=O)c2ccc(-c3cccc(F)c3)nc2)CC1 [Example 116, cis-4-({[6-(3-Fluorophenyl)pyridin-3-yl]carbonyl}amino)-1-methylcyclohexanecarboxylic acid] | 6.86
C[C@]1(C(=O)O)CC[C@H](NC(=O)c2ccc(-c3cccc(F)c3)nc2)CC1 [Example 117, trans-4-({[6-(3-Fluorophenyl)pyridin-3-yl]carbonyl}amino)-1-methylcyclohexanecarboxylic acid] | 8.14
